From article PMC9977887, “Crocodile defensin (CpoBD13) antifungal activity via pH-dependent phospholipid targeting and membrane disruption” (Nature Communications, 2023)
Where no end group is shown, it is not given here.

Test: Calcein-encapsulated liposome lysis assay
Type: biochemical
Conditions: 20 µM
Protocol: Liposomes were prepared using natural chicken egg L-α-phophatidylcholine and L-α-phosphatidic acid dissolved in chloroform (Avanti Polar Lipids), and liposome pulldowns (at pH 7.4) and calcein-encapsulated liposome lysis assays were performed as previously described. For liposome pulldowns performed at pH 5.5, the same protocol was used with minor variations. The desiccated lipid films were resuspended in 20 mM MES pH 7.4 and were washed in the same buffer during the centrifugation process. After the final wash step, the liposome pellets were resuspended in 20 mM MES pH 5.5 and incubated with CpoBD13 or mutants thereof (also prepared in the same acidic buffer).

CpoBD13: saltwater crocodile β-defensin 13, histidine-rich, three disulphide bonds, recombinantly expressed in Pichia pastoris (NGSYYSTLQCRNNHGHCRRLCFHGEQWIGNCNGRHQHCCK; disulfide (positions not given here); also: three disulphide bonds, pairings not given here)
Lysis (%) (PC:PA, 20 min, replicate 2): 65.2803% | Lysis (%) (PC:PA, 20 min, replicate 3): 62.4881% | Lysis (%) (PC:PA, 22 min, replicate 1): 64.7756% | Lysis (%) (PC:PA, 22 min, replicate 2): 65.3585% | Lysis (%) (PC:PA, 22 min, replicate 3): 63.4838% | Lysis (%) (PC:PA, 24 min, replicate 1): 65.4459% | Lysis (%) (PC:PA, 24 min, replicate 2): 66.2461% | Lysis (%) (PC:PA, 24 min, replicate 3): 64.0406% | Lysis (%) (PC:PA, 26 min, replicate 1): 65.9416% | Lysis (%) (PC:PA, 26 min, replicate 2): 66.5138% | Lysis (%) (PC:PA, 26 min, replicate 3): 64.3943% | Lysis (%) (PC:PA, 28 min, replicate 1): 66.2501% | Lysis (%) (PC:PA, 28 min, replicate 2): 65.4475% | Lysis (%) (PC:PA, 28 min, replicate 3): 64.7127% | Lysis (%) (PC:PA, 30 min, replicate 1): 67.3935% | Lysis (%) (PC:PA, 30 min, replicate 2): 66.6111% | Lysis (%) (PC:PA, 30 min, replicate 3): 65.2527% | Lysis (%) (PC, 0 min, replicate 1): 15.1234% | Lysis (%) (PC, 0 min, replicate 2): 15.1242% | Lysis (%) (PC, 0 min, replicate 3): 13.8859% | Lysis (%) (PC, 2 min, replicate 1): 39.0447% | Lysis (%) (PC, 2 min, replicate 2): 32.4816% | Lysis (%) (PC, 2 min, replicate 3): 30.5639% | Lysis (%) (PC, 4 min, replicate 1): 45.2997% | Lysis (%) (PC, 4 min, replicate 2): 38.3127% | Lysis (%) (PC, 4 min, replicate 3): 36.68% | Lysis (%) (PC, 6 min, replicate 1): 48.9071% | Lysis (%) (PC, 6 min, replicate 2): 41.9281% | Lysis (%) (PC, 6 min, replicate 3): 41.2305% | Lysis (%) (PC, 8 min, replicate 1): 49.7649% | Lysis (%) (PC, 8 min, replicate 2): 44.0474% | Lysis (%) (PC, 8 min, replicate 3): 43.6445% | Lysis (%) (PC, 10 min, replicate 1): 51.7674% | Lysis (%) (PC, 10 min, replicate 2): 44.7293% | Lysis (%) (PC, 10 min, replicate 3): 45.2138% | Lysis (%) (PC, 12 min, replicate 1): 52.4795% | Lysis (%) (PC, 12 min, replicate 2): 46.5217% | Lysis (%) (PC, 12 min, replicate 3): 46.4513% | Lysis (%) (PC, 14 min, replicate 1): 52.8236% | Lysis (%) (PC, 14 min, replicate 2): 47.6803% | Lysis (%) (PC, 14 min, replicate 3): 47.9678% | Lysis (%) (PC, 16 min, replicate 1): 54.9403% | Lysis (%) (PC, 16 min, replicate 2): 49.0986% | Lysis (%) (PC, 16 min, replicate 3): 49.0311% | Lysis (%) (PC, 18 min, replicate 1): 53.0929% | Lysis (%) (PC, 18 min, replicate 2): 50.179% | Lysis (%) (PC, 18 min, replicate 3): 50.039% | Lysis (%) (PC, 20 min, replicate 1): 53.041% | Lysis (%) (PC, 20 min, replicate 2): 50.8527% | Lysis (%) (PC, 20 min, replicate 3): 51.0255% | Lysis (%) (PC, 22 min, replicate 1): 54.0904% | Lysis (%) (PC, 22 min, replicate 2): 52.2587% | Lysis (%) (PC, 22 min, replicate 3): 51.6328% | Lysis (%) (PC, 24 min, replicate 1): 54.3794% | Lysis (%) (PC, 24 min, replicate 2): 53.0954% | Lysis (%) (PC, 24 min, replicate 3): 52.0331% | Lysis (%) (PC, 26 min, replicate 1): 55.6275% | Lysis (%) (PC, 26 min, replicate 2): 53.8088% | Lysis (%) (PC, 26 min, replicate 3): 52.9179% | Lysis (%) (PC, 28 min, replicate 1): 53.4363% | Lysis (%) (PC, 28 min, replicate 2): 55.2629% | Lysis (%) (PC, 28 min, replicate 3): 53.0065% | Lysis (%) (PC, 30 min, replicate 1): 54.3884% | Lysis (%) (PC, 30 min, replicate 2): 55.3559% | Lysis (%) (PC, 30 min, replicate 3): 54.0992%
